Earlier results as cited in US9056899B2 (priority 2008, dated 2015).
Converted amounts (≈) assume the structure as drawn. Where two headings read alike, the source gives them in different places.

Key:
Details in all cases: cited from earlier work
[1] = system: BW25113 and gene knockouts from KEIO collection
[2] = system: BW25113 and gene knockouts from KEIO collection; remark: listed apart in the source
[3] = system: BW25113 and gene knockouts
BW25113 gene knockouts = system: BW25113 gene knockouts

## O=C(O)c1cn(C2CC2)c2cc(N3CCNCC3)c(F)cc2c1=O [Ciprofloxacin]
[1]; BW25113 starting strain
  MIC E-Test: 0.016 µg/mL (≈ 0.0483 µM)
[1]; fis knockout
  MIC E-Test: 0.006 µg/mL (≈ 0.0181 µM)
[1]; recA knockout
  MIC E-Test: 0.002 µg/mL (≈ 0.00604 µM)
[1]; recC knockout
  MIC E-Test: 0.008 µg/mL (≈ 0.0241 µM)
[1]; recG knockout
  MIC E-Test: 0.006 µg/mL (≈ 0.0181 µM)
[1]; ruvC knockout
  MIC E-Test: 0.008 µg/mL (≈ 0.0241 µM)
[1]; tolC knockout
  MIC E-Test: 0.004 µg/mL (≈ 0.0121 µM)
[1]; uvrD knockout
  MIC E-Test: 0.005 µg/mL (≈ 0.0151 µM)
[1]; xseA knockout
  MIC E-Test: 0.006 µg/mL (≈ 0.0181 µM)
[2]; BW25113 starting strain
  MIC Plating: 0.02 µg/mL (≈ 0.0604 µM)
[2]; acrA knockout
  MIC Plating: 0.0075 µg/mL (≈ 0.0226 µM)
[2]; acrB knockout
  MIC Plating: 0.008 µg/mL (≈ 0.0241 µM)
[2]; deoT knockout
  MIC Plating: 0.0075 µg/mL (≈ 0.0226 µM)
[2]; dksA knockout
  MIC Plating: 0.01 µg/mL (≈ 0.0302 µM)
[2]; fis knockout
  MIC Plating: >0.00875 µg/mL
[2]; hfq knockout
  MIC Plating: 0.0075 µg/mL (≈ 0.0226 µM)
[2]; hrpA knockout
  MIC Plating: 0.00875 µg/mL (≈ 0.0264 µM)
[2]; ihfA knockout
  MIC Plating: 0.0075 µg/mL (≈ 0.0226 µM)
[2]; pgmB knockout
  MIC Plating: 0.01 µg/mL (≈ 0.0302 µM)
[2]; qmcA knockout
  MIC Plating: >0.00875 µg/mL
[2]; recA knockout
  MIC Plating: >0.00875 µg/mL
[2]; recB knockout
  MIC Plating: 0.0075 µg/mL (≈ 0.0226 µM)
[2]; recC knockout
  MIC Plating: >0.00875 µg/mL
[2]; recG knockout
  MIC Plating: 0.006 µg/mL (≈ 0.0181 µM)
[2]; recN knockout
  MIC Plating: 0.01 µg/mL (≈ 0.0302 µM)
[2]; rimK knockout
  MIC Plating: >0.00875 µg/mL
[2]; rseA knockout
  MIC Plating: >0.00875 µg/mL
[2]; ruvA knockout
  MIC Plating: 0.01 µg/mL (≈ 0.0302 µM)
[2]; ruvC knockout
  MIC Plating: >0.00875 µg/mL
[2]; tolC knockout
  MIC Plating: 0.005 µg/mL (≈ 0.0151 µM)
[2]; uvrD knockout
  MIC Plating: 0.006 µg/mL (≈ 0.0181 µM)
[2]; xseA knockout
  MIC Plating: 0.006 µg/mL (≈ 0.0181 µM)
[2]; xseB knockout
  MIC Plating: 0.008 µg/mL (≈ 0.0241 µM)
[2]; ybgC knockout
  MIC Plating: 0.0075 µg/mL (≈ 0.0226 µM)
[2]; ybgF knockout
  MIC Plating: 0.0075 µg/mL (≈ 0.0226 µM)
[2]; ychJ knockout
  MIC Plating: 0.0075 µg/mL (≈ 0.0226 µM)
[2]; yciM knockout
  MIC Plating: 0.0075 µg/mL (≈ 0.0226 µM)
[2]; ygcO knockout
  MIC Plating: 0.0075 µg/mL (≈ 0.0226 µM)
[2]; yjjY knockout
  MIC Plating: 0.00875 µg/mL (≈ 0.0264 µM)

## CN[C@H](CC(C)C)C(=O)N[C@H]1C(=O)N[C@@H](CC(N)=O)C(=O)N[C@H]2C(=O)N[C@H]3C(=O)N[C@H](C(=O)N[C@H](C(=O)O)c4cc(O)cc(O)c4-c4cc3ccc4O)[C@H](O)c3ccc(c(Cl)c3)Oc3cc2cc(c3O[C@@H]2O[C@H](CO)[C@@H](O)[C@H](O)[C@H]2O[C@H]2C[C@](C)(N)[C@H](O)[C@H](C)O2)Oc2ccc(cc2Cl)[C@H]1O [Vancomycin]
[3]; BW25113 starting strain
  MIC Plating: 500 µg/mL (≈ 345 µM)
[3]; dksA knockout
  MIC Plating: 125 µg/mL (≈ 86.3 µM)
[3]; elaD knockout
  MIC Plating: 150 µg/mL (≈ 104 µM)
[3]; envC knockout
  MIC Plating: 150 µg/mL (≈ 104 µM)
[3]; envZ knockout
  MIC Plating: 150 µg/mL (≈ 104 µM)
[3]; fepC knockout
  MIC Plating: 150 µg/mL (≈ 104 µM)
[3]; hns knockout
  MIC Plating: 150 µg/mL (≈ 104 µM)
[3]; hscB knockout
  MIC Plating: 150 µg/mL (≈ 104 µM)
[3]; lptB knockout
  MIC Plating: 150 µg/mL (≈ 104 µM)
[3]; msbB knockout
  MIC Plating: 150 µg/mL (≈ 104 µM)
[3]; oxyR knockout
  MIC Plating: 150 µg/mL (≈ 104 µM)
[3]; pal knockout
  MIC Plating: 100 µg/mL (≈ 69 µM)
[3]; pgmB knockout
  MIC Plating: 100 µg/mL (≈ 69 µM)
[3]; proW knockout
  MIC Plating: 150 µg/mL (≈ 104 µM)
[3]; rimK knockout
  MIC Plating: 150 µg/mL (≈ 104 µM)
[3]; rpmJ knockout
  MIC Plating: 150 µg/mL (≈ 104 µM)
[3]; rrmJ knockout
  MIC Plating: 150 µg/mL (≈ 104 µM)
[3]; skp knockout
  MIC Plating: 75 µg/mL (≈ 51.8 µM)
[3]; smpA knockout
  MIC Plating: 100 µg/mL (≈ 69 µM)
[3]; surA knockout
  MIC Plating: 8 µg/mL (≈ 5.52 µM)
[3]; tonB knockout
  MIC Plating: 125 µg/mL (≈ 86.3 µM)
[3]; tusC knockout
  MIC Plating: 150 µg/mL (≈ 104 µM)
[3]; tusD knockout
  MIC Plating: 150 µg/mL (≈ 104 µM)
[3]; xapR knockout
  MIC Plating: 100 µg/mL (≈ 69 µM)
[3]; ybgF knockout
  MIC Plating: 100 µg/mL (≈ 69 µM)
[3]; ycbR knockout
  MIC Plating: 150 µg/mL (≈ 104 µM)
[3]; yciM knockout
  MIC Plating: 100 µg/mL (≈ 69 µM)
[3]; ydfP knockout
  MIC Plating: 150 µg/mL (≈ 104 µM)
[3]; ydjI knockout
  MIC Plating: 100 µg/mL (≈ 69 µM)
[3]; yfgC knockout
  MIC Plating: 150 µg/mL (≈ 104 µM)
[3]; yfgL knockout
  MIC Plating: 150 µg/mL (≈ 104 µM)
[3]; yhdP knockout
  MIC Plating: 125 µg/mL (≈ 86.3 µM)
BW25113 gene knockouts; lptB knockout
  MIC E test: 2.0 µg/mL (≈ 1.38 µM)
BW25113 gene knockouts; pal knockout
  MIC E test: 96 µg/mL (≈ 66.2 µM)
BW25113 gene knockouts; smpA knockout
  MIC E test: 70 µg/mL (≈ 48.3 µM)
BW25113 gene knockouts; surA knockout
  MIC E test: 4 µg/mL (≈ 2.76 µM)
